According to paper PMC2701622 (Journal of immunology (Baltimore, Md. : 1950), 2009):
No end group written: not given here.

Target: HLA-B*2705 (Homo sapiens, UniProt P01889, D138H/D201E/E176V/E204Q/G107R/H137Y/K202T/N104T/N87E/Q56L/Q94K/R106L/R155S/R180L/S101D/S121N/S48T/Y140D/Y33H/Y91C)
Experiment: biochemical
Type: binding

Row | Compound | IC50
1 | CC(C)C[C@H](NC(=O)[C@H](CCC(=O)O)NC(=O)[C@@H](NC(=O)[C@H](CO)NC(=O)[C@H](CCCCN)NC(=O)[C@H](CCC(N)=O)NC(=O)[C@H](Cc1ccc(O)cc1)NC(=O)[C@H](CCCNC(=N)N)NC(=O)[C@@H](N)CCCNC(=N)N)[C@@H](C)O)C(=O)O [reference compound] | 0.0062 µM
2 | CC(C)C[C@H](NC(=O)[C@H](CCCNC(=N)N)NC(=O)[C@H](CC(C)C)NC(=O)[C@H](C)NC(=O)[C@H](CCC(=O)O)NC(=O)[C@@H]1CCCN1C(=O)[C@H](Cc1ccccc1)NC(=O)[C@H](CCCNC(=N)N)NC(=O)[C@@H](N)CO)C(=O)O [reference compound] | 0.012 µM
3 | ARAALQELL | 0.137 µM
4 | ARKLLLDNL [reference compound] | 0.074 µM
5 | ARLFGIRAK [reference compound] | 0.133 µM
6 | DRLALLANL [reference compound] | 0.181 µM
7 | EREQTLNQL [reference compound] | 2.69 µM
8 | IRILQRALF [Vpr62–70IF9] | 0.014 µM
9 | KRGVFVLGF [Env524–532KF9] | 0.013 µM
10 | KRLAETLAL [KRLAETLAL, reference compound] | 0.165 µM
11 | KRLRLIHLL [Rev12–20KL9] | 0.0011 µM
12 | KRQQELLRL [Env573–581KL9] | 0.069 µM
13 | LRQGYRPVF [Env717–725LF9] | 0.052 µM
14 | MRDHTITLL [reference compound] | 0.052 µM
15 | NRAKQVIKL [reference compound] | 0.324 µM
16 | NRFSVAYML [reference compound] | 0.0098 µM
17 | RRAIRGEQL [Vif123–131RL9] | 0.028 µM
18 | RRDNRRGL [Vif172–179RL8] | 0.175 µM
19 | RRHRILDIYL [Nef137–146RL10] | 0.0018 µM

Row | Compound | IC50
20 | RRIRQGLEL [Env868–876RL9] | 0.013 µM
21 | RRISGVDRY [reference compound] | 0.021 µM
22 | RRLTARGLL [Nef246–254RL9] | 0.0099 µM
23 | RRPPLLPLLL | 0.1 µM
24 | RRQDILDLWI [reference compound] | 0.099 µM
25 | RRRWQQLL [Rev44–51RL8] | 0.012 µM
26 | RRSKEITVR [reference compound] | 0.0055 µM
27 | RRSPFLQVF | 0.014 µM
28 | RRSRPSGDL [Nef8–16RL9] | 0.351 µM
29 | RRYNIIPVL | 0.0079 µM
30 | SRHHAFCFR [reference compound] | 0.042 µM
31 | SRLEILNVL | 0.08 µM
32 | SRLWPKIQGL | 0.017 µM
33 | SRQFGFIVL | 0.128 µM
34 | SRTPYHVNL | 0.022 µM
35 | SRYDPSISF | 0.254 µM
36 | TRYPTILQL | 0.097 µM
37 | YRRWIQLGL [Gag263–271YL9] | 0.0027 µM
